Data: doi:10.1101/2024.08.19.608619, “Discovery of potent SARS-CoV-2 nsp3 macrodomain inhibitors uncovers lack of translation to cellular antiviral response” (bioRxiv, 2024)
Where “and” joins values, the source holds several entries; their conditions need not be identical. Identical values can stand only once. Like-named read-outs stand apart in the source and are kept apart here.

Tests used:
[1] = Hepatic microsomal stability, HLM; format: in vitro ADME, human; settings: for perc_remaining / t_half / perc_remaining_no_cofactor / microsomal CLint / clint: In vitro human liver microsomal stability; for perc_remaining_no_cofactor: no cofactor; for microsomal CLint: liver microsomes
DRAK1(h) = target: T1, DRAK1(h) (Homo sapiens, UniProt Q9UEE5); assay: biochemical; design: In vitro kinase panel profiling, per cent remaining kinase activity at 10 uM; settings: atp_concentration=10, read-out: % of control remaining
T1 construct: gene STK17A
T1 sequence (Q9UEE5 1-414): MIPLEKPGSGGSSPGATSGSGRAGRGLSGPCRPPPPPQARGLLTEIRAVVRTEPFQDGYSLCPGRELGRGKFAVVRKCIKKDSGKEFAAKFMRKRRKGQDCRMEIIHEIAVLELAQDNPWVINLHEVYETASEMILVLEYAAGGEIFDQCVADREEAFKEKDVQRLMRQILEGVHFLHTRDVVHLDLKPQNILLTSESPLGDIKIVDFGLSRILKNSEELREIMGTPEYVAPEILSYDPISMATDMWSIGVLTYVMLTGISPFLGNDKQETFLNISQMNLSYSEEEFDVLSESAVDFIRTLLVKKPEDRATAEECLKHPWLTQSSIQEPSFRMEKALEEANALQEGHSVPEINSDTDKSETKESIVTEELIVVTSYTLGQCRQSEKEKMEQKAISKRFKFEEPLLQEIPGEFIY
Text: We derisk potential for off-target activity by profiling the compound in a CEREP panel, a standard secondary pharmacology assessment, as well as a kinase panel to derisk a potential hinge-binding motif in our leads, and a PARP panel to derisk activity against human […]. Reassuringly, the compounds are selective, with the only off-targets being moderate human CHRM2 and KOR receptors activity associated with ASAP-0011198.

KOR receptor = target: T2, KOR receptor (Homo sapiens, UniProt P41145); assay: Eurofins CEREP panel, KOR; format: binding; settings: kappa (h) (KOP) (agonist radioligand), test compound concentration 10 uM
T2 construct: purchased Eurofins Cerep (SafetyScreen44), recognised from the panel format

[2] = In vitro rat hepatocyte stability; format: in vitro ADME
Text: (§1) Supplement media-1.zip/Hepatocyte_Stability.csv, table | column: clint; t_half

[3] = In vitro dog hepatocyte stability; format: in vitro ADME
Text: as §1

alpha1A (h) = target: T3, alpha1A (h) (Homo sapiens, UniProt P35348); assay: In vitro CEREP profiling, alpha1A (h) (antagonist radioligand); format: binding; settings: test compound 10 uM
T3 construct: purchased Eurofins Cerep (SafetyScreen44), recognised from the panel format
T3 sequence (P35348 1-466): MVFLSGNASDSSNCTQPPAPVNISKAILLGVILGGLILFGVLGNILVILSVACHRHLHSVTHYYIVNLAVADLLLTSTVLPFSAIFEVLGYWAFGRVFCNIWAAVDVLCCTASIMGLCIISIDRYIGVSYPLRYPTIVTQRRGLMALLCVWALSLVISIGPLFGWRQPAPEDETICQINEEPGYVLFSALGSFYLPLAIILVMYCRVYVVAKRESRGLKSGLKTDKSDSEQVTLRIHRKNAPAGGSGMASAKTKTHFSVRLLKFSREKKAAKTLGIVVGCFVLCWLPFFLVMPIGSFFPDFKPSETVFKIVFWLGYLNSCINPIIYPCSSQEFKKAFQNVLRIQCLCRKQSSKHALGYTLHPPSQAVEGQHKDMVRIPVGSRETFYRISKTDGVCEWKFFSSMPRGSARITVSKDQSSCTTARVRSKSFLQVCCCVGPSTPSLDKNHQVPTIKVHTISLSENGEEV
Text: (§2) Supplement media-1.zip/Safety_Panel_Profile.csv, table | column: perc_inhibition

H2 (h) = target: T4, H2 (h) (Homo sapiens, UniProt P25021); assay: In vitro CEREP profiling, H2 (h) (antagonist radioligand); format: binding; settings: test compound concentration 10 uM
T4 construct: purchased Eurofins Cerep (SafetyScreen44), recognised from the panel format
Text: as §2

beta1 (h) = target: T5, beta1 (h) (Homo sapiens, UniProt P08588); assay: In vitro CEREP profiling, beta1 (h) (agonist radioligand); format: binding; settings: test compound 10 uM
T5 construct: purchased Eurofins Cerep (SafetyScreen44), recognised from the panel format
Text: as §2

beta2 (h) = target: T6, beta2 (h) (Homo sapiens, UniProt P07550); assay: In vitro CEREP profiling, beta2 (h) (antagonist radioligand); format: binding; settings: test compound 10 uM
T6 construct: purchased Eurofins Cerep (SafetyScreen44), recognised from the panel format
Text: as §2

AR(h) = assay: In vitro CEREP profiling, AR(h) (agonist radioligand); format: binding, human; settings: test compound concentration 10 uM
Text: as §2

[4] = target: T7, N neuronal alpha4beta2 (h) (Homo sapiens, UniProt P17787+P43681); assay: In vitro CEREP profiling, N neuronal alpha4beta2 (h) (agonist radioligand); format: binding; settings: test compound concentration 10 uM
T7 construct: purchased Eurofins Cerep (SafetyScreen44), recognised from the panel format
Text: as §2

CCK1 (CCKA) (h) = target: T8, CCK1 (CCKA) (h) (Homo sapiens, UniProt P32238); assay: In vitro CEREP profiling, CCK1 (CCKA) (h) (agonist radioligand); format: binding; settings: test compound 10 uM
T8 construct: purchased Eurofins Cerep (SafetyScreen44), recognised from the panel format
T8 sequence (P32238 1-428): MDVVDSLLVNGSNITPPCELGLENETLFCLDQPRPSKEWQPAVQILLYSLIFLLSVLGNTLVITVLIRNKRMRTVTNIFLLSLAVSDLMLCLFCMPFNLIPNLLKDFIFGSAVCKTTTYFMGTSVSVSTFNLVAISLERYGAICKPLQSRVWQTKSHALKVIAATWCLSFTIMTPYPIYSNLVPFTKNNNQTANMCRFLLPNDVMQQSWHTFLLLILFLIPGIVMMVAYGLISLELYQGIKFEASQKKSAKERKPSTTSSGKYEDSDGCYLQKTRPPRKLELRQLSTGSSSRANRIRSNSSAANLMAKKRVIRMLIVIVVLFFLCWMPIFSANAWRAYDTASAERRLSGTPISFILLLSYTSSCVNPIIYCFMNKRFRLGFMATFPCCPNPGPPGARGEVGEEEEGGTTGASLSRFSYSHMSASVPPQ
Text: as §2

KV channel = assay: In vitro CEREP profiling, KV channel (antagonist radioligand); format: binding; settings: test compound concentration 10 uM
Text: as §2

D2S (h) = target: T9, D2S (h) (Homo sapiens, UniProt P14416); assay: In vitro CEREP profiling, D2S (h) (agonist radioligand); format: binding; settings: test compound 10 uM
T9 construct: purchased Eurofins Cerep (SafetyScreen44), recognised from the panel format
Text: as §2

NMDA = assay: In vitro CEREP profiling, NMDA (antagonist radioligand); format: binding
Text: as §2

dopamine transporter (h) = target: T10, dopamine transporter (h) (Homo sapiens, UniProt Q01959); assay: In vitro CEREP profiling, dopamine transporter (h) (antagonist radioligand); format: binding; settings: test compound concentration 10 uM
T10 construct: purchased Eurofins Cerep (SafetyScreen44), recognised from the panel format
Text: as §2

[5] = test compound concentration 10 uM
[6] = read-out: perc_inhibition (% inhibition of the binding of a ligand specific for each target)

T6 sequence (P07550 whole entry): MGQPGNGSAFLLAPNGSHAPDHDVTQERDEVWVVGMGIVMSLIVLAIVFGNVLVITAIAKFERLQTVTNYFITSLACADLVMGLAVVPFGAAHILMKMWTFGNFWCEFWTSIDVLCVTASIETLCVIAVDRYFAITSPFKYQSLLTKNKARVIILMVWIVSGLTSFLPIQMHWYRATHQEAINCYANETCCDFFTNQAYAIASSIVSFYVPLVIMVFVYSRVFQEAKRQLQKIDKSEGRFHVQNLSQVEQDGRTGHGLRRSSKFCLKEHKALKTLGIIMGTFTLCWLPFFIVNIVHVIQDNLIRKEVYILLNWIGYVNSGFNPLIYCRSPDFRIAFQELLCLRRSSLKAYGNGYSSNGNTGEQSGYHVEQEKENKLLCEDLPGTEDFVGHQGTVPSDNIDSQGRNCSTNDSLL
T5 sequence (P08588 whole entry): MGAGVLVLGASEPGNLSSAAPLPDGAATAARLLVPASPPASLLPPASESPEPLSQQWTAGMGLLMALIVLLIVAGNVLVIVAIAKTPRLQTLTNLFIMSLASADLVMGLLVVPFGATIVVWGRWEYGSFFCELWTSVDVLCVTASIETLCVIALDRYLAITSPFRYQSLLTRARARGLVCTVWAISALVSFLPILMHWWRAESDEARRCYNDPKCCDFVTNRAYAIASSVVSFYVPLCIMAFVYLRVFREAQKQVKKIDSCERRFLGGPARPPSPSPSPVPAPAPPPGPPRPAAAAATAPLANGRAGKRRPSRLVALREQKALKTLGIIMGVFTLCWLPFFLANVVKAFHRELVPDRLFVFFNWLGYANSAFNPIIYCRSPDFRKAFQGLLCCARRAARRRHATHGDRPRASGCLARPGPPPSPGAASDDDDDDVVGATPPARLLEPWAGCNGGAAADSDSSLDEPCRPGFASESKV
T2 sequence (P41145 whole entry): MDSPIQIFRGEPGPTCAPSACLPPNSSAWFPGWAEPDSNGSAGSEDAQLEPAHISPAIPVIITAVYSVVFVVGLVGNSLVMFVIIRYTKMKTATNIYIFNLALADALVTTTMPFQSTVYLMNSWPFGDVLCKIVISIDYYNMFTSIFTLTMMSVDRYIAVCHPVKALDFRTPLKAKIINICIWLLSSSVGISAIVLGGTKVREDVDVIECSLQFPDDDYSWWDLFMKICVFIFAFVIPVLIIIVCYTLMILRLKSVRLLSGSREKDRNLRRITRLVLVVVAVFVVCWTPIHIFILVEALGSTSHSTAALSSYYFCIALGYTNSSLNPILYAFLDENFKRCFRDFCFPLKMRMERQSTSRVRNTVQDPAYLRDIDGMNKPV
T10 sequence (Q01959 whole entry): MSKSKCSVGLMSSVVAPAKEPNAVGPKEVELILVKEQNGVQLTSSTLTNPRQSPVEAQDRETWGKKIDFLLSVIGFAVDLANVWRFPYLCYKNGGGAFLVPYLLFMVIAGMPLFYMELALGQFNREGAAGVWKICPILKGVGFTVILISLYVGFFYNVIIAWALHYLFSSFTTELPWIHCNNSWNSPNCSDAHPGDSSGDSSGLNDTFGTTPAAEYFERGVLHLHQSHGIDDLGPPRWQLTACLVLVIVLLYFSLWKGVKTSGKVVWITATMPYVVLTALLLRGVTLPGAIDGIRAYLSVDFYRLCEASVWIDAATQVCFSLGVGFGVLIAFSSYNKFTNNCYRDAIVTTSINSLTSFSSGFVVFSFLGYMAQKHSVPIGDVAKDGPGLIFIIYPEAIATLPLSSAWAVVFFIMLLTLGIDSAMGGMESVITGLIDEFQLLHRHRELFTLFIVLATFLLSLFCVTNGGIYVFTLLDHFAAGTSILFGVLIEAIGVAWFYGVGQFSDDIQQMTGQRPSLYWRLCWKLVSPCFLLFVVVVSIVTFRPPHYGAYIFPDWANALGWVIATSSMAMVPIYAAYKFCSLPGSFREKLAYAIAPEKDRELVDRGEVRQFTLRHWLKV
T4 sequence (P25021 whole entry): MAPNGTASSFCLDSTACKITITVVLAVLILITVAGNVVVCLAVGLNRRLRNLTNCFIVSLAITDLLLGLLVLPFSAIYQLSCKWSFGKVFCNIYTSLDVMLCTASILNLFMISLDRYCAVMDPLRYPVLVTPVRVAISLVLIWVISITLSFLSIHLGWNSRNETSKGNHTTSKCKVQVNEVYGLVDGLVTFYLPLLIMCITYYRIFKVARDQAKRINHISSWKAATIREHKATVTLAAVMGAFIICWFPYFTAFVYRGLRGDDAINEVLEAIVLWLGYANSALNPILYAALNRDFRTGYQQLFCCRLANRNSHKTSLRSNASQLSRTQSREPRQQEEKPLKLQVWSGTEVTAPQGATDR
T7 sequence (P43681 29-627 limits assumed): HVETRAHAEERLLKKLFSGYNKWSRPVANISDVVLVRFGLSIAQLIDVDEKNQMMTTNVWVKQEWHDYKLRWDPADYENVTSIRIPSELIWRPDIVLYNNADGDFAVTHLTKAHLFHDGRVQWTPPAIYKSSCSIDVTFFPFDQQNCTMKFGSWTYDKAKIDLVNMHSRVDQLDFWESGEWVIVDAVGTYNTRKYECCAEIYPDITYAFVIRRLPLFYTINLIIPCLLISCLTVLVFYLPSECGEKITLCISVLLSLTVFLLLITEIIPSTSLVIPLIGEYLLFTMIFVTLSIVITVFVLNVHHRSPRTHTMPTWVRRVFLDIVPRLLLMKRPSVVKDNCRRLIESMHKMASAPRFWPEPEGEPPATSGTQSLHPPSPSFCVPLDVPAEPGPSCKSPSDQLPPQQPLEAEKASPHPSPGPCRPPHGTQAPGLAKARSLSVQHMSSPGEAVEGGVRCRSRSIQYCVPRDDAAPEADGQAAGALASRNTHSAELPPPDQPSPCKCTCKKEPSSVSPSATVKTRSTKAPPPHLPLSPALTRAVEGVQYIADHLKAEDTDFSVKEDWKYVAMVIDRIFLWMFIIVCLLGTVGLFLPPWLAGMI
T7 sequence (P17787 26-502): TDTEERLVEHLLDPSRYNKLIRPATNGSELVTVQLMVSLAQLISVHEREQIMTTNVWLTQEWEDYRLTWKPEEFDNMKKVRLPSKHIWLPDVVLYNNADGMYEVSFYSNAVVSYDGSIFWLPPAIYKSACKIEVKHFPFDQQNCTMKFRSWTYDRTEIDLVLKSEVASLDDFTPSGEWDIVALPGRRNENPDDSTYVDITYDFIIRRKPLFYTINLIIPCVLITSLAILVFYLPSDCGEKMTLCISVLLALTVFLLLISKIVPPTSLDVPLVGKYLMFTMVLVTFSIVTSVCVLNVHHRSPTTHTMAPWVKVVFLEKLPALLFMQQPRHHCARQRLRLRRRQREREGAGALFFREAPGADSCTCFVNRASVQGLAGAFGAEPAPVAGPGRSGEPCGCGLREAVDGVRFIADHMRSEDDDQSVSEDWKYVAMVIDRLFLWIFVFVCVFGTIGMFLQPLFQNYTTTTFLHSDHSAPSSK
T9 sequence (P14416 1-414 isoform P14416-2): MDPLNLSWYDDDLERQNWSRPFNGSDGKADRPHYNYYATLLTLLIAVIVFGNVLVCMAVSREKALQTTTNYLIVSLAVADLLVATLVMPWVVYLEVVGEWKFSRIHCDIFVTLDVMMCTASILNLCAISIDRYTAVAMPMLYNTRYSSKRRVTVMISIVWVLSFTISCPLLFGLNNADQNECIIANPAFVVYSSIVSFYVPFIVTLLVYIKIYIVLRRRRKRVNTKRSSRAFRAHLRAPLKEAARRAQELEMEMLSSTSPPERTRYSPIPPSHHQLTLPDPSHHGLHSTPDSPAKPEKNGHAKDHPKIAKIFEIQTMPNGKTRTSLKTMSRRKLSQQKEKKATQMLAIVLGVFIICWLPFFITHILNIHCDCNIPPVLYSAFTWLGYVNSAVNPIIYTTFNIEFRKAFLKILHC

Structure (SMILES) | perc_remaining [1] | t_half [1] | perc_remaining_no_cofactor [1] | clint [1] | perc_inhibition (% inhibition of the binding of a ligand specific for each target) (KOR receptor) | clint [2] | t_half [2] | clint [3] | t_half [3] | perc_inhibition (% inhibition of the binding of a ligand specific for each target) (alpha1A (h)) | perc_inhibition (% inhibition of the binding of a ligand specific for each target) (H2 (h)) | perc_inhibition (% inhibition of the binding of a ligand specific for each target) (beta1 (h)) | perc_inhibition (% inhibition of the binding of a ligand specific for each target) (beta2 (h)) | perc_inhibition (% inhibition of the binding of a ligand specific for each target) (AR(h)) | perc_inhibition (% inhibition of the binding of a ligand specific for each target) [4] | perc_inhibition (% inhibition of the binding of a ligand specific for each target) (CCK1 (CCKA) (h)) | perc_inhibition (% inhibition of the binding of a ligand specific for each target) (KV channel) | perc_inhibition (% inhibition of the binding of a ligand specific for each target) (D2S (h)) | perc_inhibition (% inhibition of the binding of a ligand specific for each target) (NMDA; [5]) | perc_inhibition (% inhibition of the binding of a ligand specific for each target) (dopamine transporter (h)) | also measured
CC(C)C(Nc1ncnc2[nH]ccc12)c1ccc2c(c1)S(=O)(=O)CCC2 (stereo not shown) [ASAP-0008327] | 53.0% | 44.7 min | 99.0% | – | – | – | – | – | – | – | – | – | – | – | – | – | – | – | – | – | microsomal CLint ([1]; human): 37 µL/min/mg; remaining activity at 10 µM (DRAK1(h); batch_name=ASAP-0008327-001): 96%
COc1ccc([C@@H](Cc2nnn[nH]2)NC(=O)c2ncnc3[nH]ccc23)cc1 [ASAP-0008340] | 86.0% | 313.8 min | 110.0% | 5.0 µL/min/mg | – | – | – | – | – | – | – | – | – | – | – | – | – | – | – | – | remaining activity at 10 µM (DRAK1(h); batch_name=ASAP-0008340-001): 111%
CC(C)[C@@H](Nc1ncnc2[nH]c(-c3cnn(C)c3C#N)cc12)c1ccc2c(n1)OCCO2 [ASAP-0008418] | 34.0% and 36.0% | 28.1 min and 29.7 min | 98.0% and 104.0% | 59.0 µL/min/mg and 56.0 µL/min/mg | – | – | – | – | – | – | – | – | – | – | – | – | – | – | – | – | remaining activity at 10 µM (DRAK1(h); batch_name=ASAP-0008418-001): 101%
CC(C)[C@H](Nc1ncnc2[nH]ccc12)c1ccc2c(c1)S(=O)(=O)CCC2 [ASAP-0008674] | 37.0% | 29.5 min | 92.0% | 57.0 µL/min/mg | 84% | 75.8 uL/min/1E6 cells | 9.15 min | < 3.0 uL/min/1E6 cells | > 231.0 min | -2% | -6% | 11% | -1% | 0% | 1% | -2% | -10% | -14% | -1% | 27% | remaining activity at 10 µM (DRAK1(h); batch_name=ASAP-0008674-002): 117%
CC(C)[C@@H](Nc1ncnc2[nH]c(-c3cnn(C)c3C#N)cc12)c1ccc2c(n1)OCCO2 [ASAP-0010716] | – | – | – | – | 56% | 182.0 uL/min/1E6 cells | 3.8 min | 3.91 uL/min/1E6 cells | 177.0 min | 11% | -11% | -2% | 3% | 12% | -2% | 20% | 2% | 3% | 1% | 30% | remaining activity at 10 µM (DRAK1(h); batch_name=ASAP-0010716-002): 108%
Cc1nn(C)cc1-c1cc2c(NC(c3ccc4c(c3)S(=O)(=O)CCC4)C(C)C)ncnc2[nH]1 (stereo not shown) [ASAP-0011446] | 1.0% | 6.1 min | 113.0% | – | – | – | – | – | – | – | – | – | – | 6% | – | – | 1% | – | -2% | – | clearance (metabolic stability), in words ([1]; HLM/MLM): moderate-to-high clearance; microsomal CLint [1]: 273 µL/min/mg; inhibition at 10 µM (KOR receptor; [6]): 45%; inhibition at 10 µM (alpha1A (h); [6]): 8%; inhibition at 10 µM (H2 (h); [6]): -4%; inhibition at 10 µM (beta1 (h); [6]): 1%; inhibition at 10 µM (beta2 (h); [6]): -7%; inhibition at 10 µM [4, 6]: -2%; inhibition at 10 µM (CCK1 (CCKA) (h); [6]): -8%; inhibition at 10 µM (D2S (h); [6]): -16%; inhibition at 10 µM (dopamine transporter (h); read-out: perc_inhibition, % inhibition of the binding of a ligand specific for each target): 13%; remaining activity at 10 µM (DRAK1(h); batch_name=ASAP-0011446-002): 111%
COc1ccc([C@H](Cc2nnn[nH]2)NC(=O)c2ncnc3[nH]ccc23)cc1 [ASAP-0015381] | 105.597% | 1085.642 min | 84.68% | 2.0 µL/min/mg | 2% | < 3.0 uL/min/1E6 cells | > 231.0 min | < 3.0 uL/min/1E6 cells | > 231.0 min | -7% | -24% | -3% | -6% | -2% | 4% | -5% | -1% | -4% | – | 7% | perc_inhibition (% inhibition of the binding of a ligand specific for each target) (NMDA; test compound 10 uM): 9%
